From US6355799B1, “Substituted benzene compounds, process for their preparation, and herbicidal and defoliant compositions containing them” (ISK Americas Incorporated, priority 1997, dated 2002)

Columns and labels:
Format in all cases: in vivo
[1] = test system: redroot pigweed (Amaranthus retroflexus, AMARE); assay: Pre-emerge test, greenhouse herbicide activity screening; details: phytotoxicity rating 0-100, 14 days after application
In short: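 Sandy loam pots; pre-emerge: sown 1 d pre-spray, surface-watered after, then bottom-watered. Post-emerge: sown 8–21 d before, 2–3 leaf stage, + 0.25% v/v NIS, bottom-watered. Acetone, 187 l/ha track spray, 15–1000 g ai/ha. 0–100 injury score, day 14.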

[2] = test system: johnsongrass (Sorghum halepense, SORHA); assay: Post-emerge test, greenhouse herbicide activity screening; details: post-emerge, 14 days after application, rating scale 0-100
In short: (§1)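 Herbicidal damage is scored 0 (none) to 100 (complete plant death) two weeks after a simulated field spray. Rates span 15–1000 g ai/ha, delivered in acetone at 187 l/ha. For post-emergence treatments, plants have 2–3 leaves and the spray carries 0.25% v/v non-ionic surfactant.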

[3] = test system: lambsquarters (Chenopodium album, CHEAL); assay: as above; details: post-emerge, 14 days after application, rating scale 0-100
In short: as §1

[4] = test system: barnyardgrass (Echinochloa crus-galli, ECHCG); assay: as above; details: post-emerge, 14 days after application, rating scale 0-100
In short: as §1

[5] = test system: large crabgrass (Digitaria sanguinalis, DIGSA); assay: as above; details: post-emerge, 14 days after application, rating scale 0-100
In short: as §1

[6] = test system: ivyleaf morningglory (Ipomoea hederacea, IPOHE); assay: as above; details: post-emerge, 14 days after application, rating scale 0-100
In short: as §1

[7] = test system: redroot pigweed (Amaranthus retroflexus, AMARE); assay: as above; details: post-emerge, 14 days after application
In short: as §1

[8] = test system: sicklepod (Cassia obtusifolia, CASOB); assay: as above; details: post-emerge, 14 days after application, rating scale 0-100
In short: as §1

[9] = test system: green foxtail (Setaria viridis, SETVI); assay: as above; details: post-emerge, 14 days after application, rating scale 0-100
In short: as §1

[10] = test system: velvetleaf (Abutilon theophrasti, ABUTH); assay: as above; details: post-emerge, 14 days after application, rating scale 0-100
In short: as §1

[11] = test system: field corn (Zea mays L., var. Dekalb 535, CORN); assay: Pre-emerge test, crop safety; details: crop damage rating 0-100, 14 days after application
In short: as §1

[12] = test system: upland rice (Oryza sp., var. Tebonnet, RICE); assay: Pre-emerge test, crop safety; details: crop damage rating 0-100, 14 days after application
In short: as §1

[13] = test system: johnsongrass (Sorghum halepense, SORHA); assay: Pre-emerge test, greenhouse herbicide activity screening; details: phytotoxicity rating 0-100, 14 days after application
In short: (§2)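 Compounds in acetone were track-sprayed at 187 l/ha, 15–1000 g ai/ha, onto sandy loam pots. Pre-emerge seeds were sown one day before spraying, with surface watering afterwards. Post-emerge plants were at the 2–3 leaf stage and sprayed with 0.25% v/v non-ionic surfactant. Injury was rated 0–100 at 14 days.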

[14] = test system: lambsquarters (Chenopodium album, CHEAL); assay: as above; details: phytotoxicity rating 0-100, 14 days after application
In short: as §2

[15] = test system: barnyardgrass (Echinochloa crus-galli, ECHCG); assay: as above; details: phytotoxicity rating 0-100, 14 days after application
In short: as §2

[16] = test system: large crabgrass (Digitaria sanguinalis, DIGSA); assay: as above; details: phytotoxicity rating 0-100, 14 days after application
In short: as §2

[17] = test system: ivyleaf morningglory (Ipomoea hederacea, IPOHE); assay: as above; details: phytotoxicity rating 0-100, 14 days after application
In short: as §2

[18] = test system: sicklepod (Cassia obtusifolia, CASOB); assay: as above; details: phytotoxicity rating 0-100, 14 days after application
In short: as §2

[19] = test system: green foxtail (Setaria viridis, SETVI); assay: as above; details: phytotoxicity rating 0-100, 14 days after application
In short: as §2

[20] = test system: velvetleaf (Abutilon theophrasti, ABUTH); assay: as above; details: phytotoxicity rating 0-100, 14 days after application
In short: as §2

[21] = test system: field corn (Zea mays L., var. Dekalb 535, CORN); assay: Post-emerge test, crop safety; details: post-emerge, 14 days after application, rating scale 0-100
In short: as §2

[22] = test system: upland rice (Oryza sp., var. Tebonnet, RICE); assay: Post-emerge test, crop safety; details: post-emerge, 14 days after application, rating scale 0-100
In short: as §2

[23] = 63 g ai/ha, rating scale 0-100 (0 no damage, 100 complete death)
[24] = 250 g ai/ha, rating scale 0-100

Nn1c(C(F)(F)F)cc(=O)n(-c2c(F)cc(Cl)c(O)c2NC(=O)c2ccc3ccccc3c2)c1=O [Compound 2-192]
5: phytotoxicity rating CORN (crop damage) ([21]; 63 g ai/ha)
40: phytotoxicity rating CASOB ([8]; 63 g ai/ha)
80: Pre-emerge Herbicidal Activity CHEAL ([14]; 250 g ai/ha)
0: phytotoxicity rating SORHA ([2]; 63 g ai/ha) | phytotoxicity rating SORHA ([2]; 250 g ai/ha) | phytotoxicity rating ECHCG ([4]; 63 g ai/ha) | phytotoxicity rating ECHCG ([4]; 250 g ai/ha) | phytotoxicity rating DIGSA ([5]; 63 g ai/ha) | phytotoxicity rating DIGSA ([5]; 250 g ai/ha) | phytotoxicity rating SETVI ([9]; 63 g ai/ha) | phytotoxicity rating SETVI ([9]; 250 g ai/ha) | Pre-emerge Herbicidal Activity CORN ([11]; 250 g ai/ha) | Pre-emerge Herbicidal Activity RICE ([12]; 250 g ai/ha) | Pre-emerge Herbicidal Activity SORHA ([13]; 250 g ai/ha) | Pre-emerge Herbicidal Activity ECHCG ([15]; 250 g ai/ha) | Pre-emerge Herbicidal Activity DIGSA ([16]; 250 g ai/ha) | Pre-emerge Herbicidal Activity CASOB ([18]; 250 g ai/ha) | Pre-emerge Herbicidal Activity SETVI ([19]; 250 g ai/ha) | phytotoxicity rating RICE (crop damage) ([22]; 63 g ai/ha)
30: Pre-emerge Herbicidal Activity IPOHE ([17]; 250 g ai/ha)
85: phytotoxicity rating ABUTH ([10]; 63 g ai/ha) | phytotoxicity rating ABUTH ([10]; 250 g ai/ha) | Pre-emerge Herbicidal Activity ABUTH ([20]; 250 g ai/ha)
20: phytotoxicity rating RICE (crop damage) ([22]; 250 g ai/ha)
90: Pre-emerge Herbicidal Activity AMARE ([1]; 250 g ai/ha)
50: phytotoxicity rating CHEAL ([3]; 250 g ai/ha) | phytotoxicity rating IPOHE ([6]; 63 g ai/ha)
15: phytotoxicity rating CORN (crop damage) ([21]; 250 g ai/ha)
60: phytotoxicity rating CHEAL ([3]; 63 g ai/ha) | phytotoxicity rating CASOB ([8]; 250 g ai/ha)
70: phytotoxicity rating IPOHE ([6]; 250 g ai/ha) | phytotoxicity rating AMARE [7, 23] | phytotoxicity rating AMARE [7, 24]

COc1c(Cl)cc(F)c(-n2c(=O)cc(C(F)(F)F)n(C)c2=O)c1NC(=O)Nc1ccccc1 [Compound 3-4]
50: phytotoxicity rating ABUTH ([10]; 250 g ai/ha) | Pre-emerge Herbicidal Activity IPOHE ([17]; 250 g ai/ha)
0: Pre-emerge Herbicidal Activity AMARE ([1]; 63 g ai/ha) | phytotoxicity rating SORHA ([2]; 63 g ai/ha) | phytotoxicity rating SORHA ([2]; 250 g ai/ha) | phytotoxicity rating CHEAL ([3]; 63 g ai/ha) | phytotoxicity rating CHEAL ([3]; 250 g ai/ha) | phytotoxicity rating ECHCG ([4]; 63 g ai/ha) | phytotoxicity rating ECHCG ([4]; 250 g ai/ha) | phytotoxicity rating DIGSA ([5]; 63 g ai/ha) | phytotoxicity rating DIGSA ([5]; 250 g ai/ha) | phytotoxicity rating IPOHE ([6]; 63 g ai/ha) | phytotoxicity rating IPOHE ([6]; 250 g ai/ha) | phytotoxicity rating AMARE [7, 23] | phytotoxicity rating AMARE [7, 24] | phytotoxicity rating CASOB ([8]; 63 g ai/ha) | phytotoxicity rating CASOB ([8]; 250 g ai/ha) | phytotoxicity rating SETVI ([9]; 63 g ai/ha) | phytotoxicity rating SETVI ([9]; 250 g ai/ha) | Pre-emerge Herbicidal Activity CORN ([11]; 63 g ai/ha) | Pre-emerge Herbicidal Activity CORN ([11]; 250 g ai/ha) | Pre-emerge Herbicidal Activity RICE ([12]; 63 g ai/ha) | Pre-emerge Herbicidal Activity SORHA ([13]; 63 g ai/ha) | Pre-emerge Herbicidal Activity CHEAL ([14]; 63 g ai/ha) | Pre-emerge Herbicidal Activity ECHCG ([15]; 63 g ai/ha) | Pre-emerge Herbicidal Activity ECHCG ([15]; 250 g ai/ha) | Pre-emerge Herbicidal Activity DIGSA ([16]; 63 g ai/ha) | Pre-emerge Herbicidal Activity IPOHE ([17]; 63 g ai/ha) | Pre-emerge Herbicidal Activity CASOB ([18]; 63 g ai/ha) | Pre-emerge Herbicidal Activity ABUTH ([20]; 63 g ai/ha) | phytotoxicity rating CORN (crop damage) ([21]; 63 g ai/ha) | phytotoxicity rating CORN (crop damage) ([21]; 250 g ai/ha) | phytotoxicity rating RICE (crop damage) ([22]; 63 g ai/ha)
40: phytotoxicity rating ABUTH ([10]; 63 g ai/ha)
10: Pre-emerge Herbicidal Activity SORHA ([13]; 250 g ai/ha) | Pre-emerge Herbicidal Activity DIGSA ([16]; 250 g ai/ha) | phytotoxicity rating RICE (crop damage) ([22]; 250 g ai/ha)
15: Pre-emerge Herbicidal Activity RICE ([12]; 250 g ai/ha)
60: Pre-emerge Herbicidal Activity CASOB ([18]; 250 g ai/ha) | Pre-emerge Herbicidal Activity SETVI ([19]; 250 g ai/ha)
20: Pre-emerge Herbicidal Activity SETVI ([19]; 63 g ai/ha)
100: Pre-emerge Herbicidal Activity AMARE ([1]; 250 g ai/ha) | Pre-emerge Herbicidal Activity CHEAL ([14]; 250 g ai/ha) | Pre-emerge Herbicidal Activity ABUTH ([20]; 250 g ai/ha)
